Measured values reported in PubChem BioAssay (NCI).
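Grown in 96-well plates, cells were treated for 48 hours with each compound at five concentrations. Insufficient inhibition: endpoint recorded as highest concentration tested. At the GI50, growth is halved. TGI is the concentration that stops growth completely.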

What was measured:
Assay in all cases: growth of human tumour cells (NCI), 48 h
HCC-2998 colon = system: HCC-2998 colon
SN12C renal = system: SN12C renal
OVCAR-3 ovarian = system: OVCAR-3 ovarian
RPMI-8226 leukemia = system: RPMI-8226 leukemia
MOLT-4 leukemia = system: MOLT-4 leukemia
T-47D breast = system: T-47D breast
MCF7 breast = system: MCF7 breast
UO-31 renal = system: UO-31 renal
SNB-19 CNS = system: SNB-19 CNS
MDA-MB-435 = system: MDA-MB-435
SK-MEL-5 melanoma = system: SK-MEL-5 melanoma
OVCAR-5 ovarian = system: OVCAR-5 ovarian
SF-295 CNS = system: SF-295 CNS
HOP-62 NSCLC = system: HOP-62 NSCLC
HCT-116 colon = system: HCT-116 colon
UACC-257 melanoma = system: UACC-257 melanoma
SK-MEL-28 melanoma = system: SK-MEL-28 melanoma
HS 578T breast = system: HS 578T breast
NCI-H23 lung = system: NCI-H23 lung
HOP-92 NSCLC = system: HOP-92 NSCLC
HCT-15 colon = system: HCT-15 colon
NCI/ADR-RES ovarian = system: NCI/ADR-RES ovarian
NCI-H226 lung = system: NCI-H226 lung
MALME-3M melanoma = system: MALME-3M melanoma
SK-MEL-2 melanoma = system: SK-MEL-2 melanoma
HT29 colon = system: HT29 colon
SK-OV-3 ovarian = system: SK-OV-3 ovarian
KM12 colon = system: KM12 colon
OVCAR-4 ovarian = system: OVCAR-4 ovarian
NCI-H522 lung = system: NCI-H522 lung
U251 CNS = system: U251 CNS
IGROV1 ovarian = system: IGROV1 ovarian
SW-620 colon = system: SW-620 colon
BT-549 breast = system: BT-549 breast
COLO 205 colon = system: COLO 205 colon
SF-539 CNS = system: SF-539 CNS
CCRF-CEM leukemia = system: CCRF-CEM leukemia
M14 melanoma = system: M14 melanoma
NCI-H460 lung = system: NCI-H460 lung
CAKI-1 renal = system: CAKI-1 renal
TK-10 renal = system: TK-10 renal
MDA-N = system: MDA-N
PC-3 prostate = system: PC-3 prostate
DU-145 prostate = system: DU-145 prostate
A549 NSCLC = system: A549 NSCLC
K-562 leukemia = system: K-562 leukemia
SF-268 CNS = system: SF-268 CNS
786-0 renal = system: 786-0 renal
SNB-75 CNS = system: SNB-75 CNS
A498 renal = system: A498 renal
MDA-MB-231 breast = system: MDA-MB-231 breast
ACHN renal = system: ACHN renal
RXF 393 renal = system: RXF 393 renal
EKVX NSCLC = system: EKVX NSCLC
OVCAR-8 ovarian = system: OVCAR-8 ovarian
HL-60(TB) leukemia = system: HL-60(TB) leukemia
LOX IMVI melanoma = system: LOX IMVI melanoma
UACC-62 melanoma = system: UACC-62 melanoma

Question: What does the source list for `CC=C(CBr)CCC(Br)C(C)(C)Cl` (mixture of isomers)?
Answer: TGI (HCC-2998 colon): > 10 µM; TGI (SN12C renal): > 10 µM; TGI (OVCAR-3 ovarian): > 10 µM; TGI (RPMI-8226 leukemia): > 10 µM; TGI (MOLT-4 leukemia): > 10 µM; TGI (T-47D breast): > 10 µM; TGI (MCF7 breast): > 10 µM; TGI (UO-31 renal): > 10 µM; TGI (SNB-19 CNS): > 10 µM; TGI (MDA-MB-435): > 10 µM; TGI (SK-MEL-5 melanoma): > 10 µM; TGI (OVCAR-5 ovarian): > 10 µM; TGI (SF-295 CNS): > 10 µM; TGI (HOP-62 NSCLC): > 10 µM; TGI (HCT-116 colon): > 10 µM; TGI (UACC-257 melanoma): > 10 µM; TGI (SK-MEL-28 melanoma): > 10 µM; TGI (HS 578T breast): > 10 µM; TGI (NCI-H23 lung): > 10 µM; TGI (HOP-92 NSCLC): > 10 µM; TGI (HCT-15 colon): > 10 µM; TGI (NCI/ADR-RES ovarian): > 10 µM; TGI (NCI-H226 lung): > 10 µM; TGI (MALME-3M melanoma): > 10 µM; TGI (SK-MEL-2 melanoma): > 10 µM; TGI (HT29 colon): > 10 µM; TGI (SK-OV-3 ovarian): > 10 µM; TGI (KM12 colon): > 10 µM; TGI (OVCAR-4 ovarian): > 10 µM; TGI (NCI-H522 lung): > 10 µM; TGI (U251 CNS): > 10 µM; TGI (IGROV1 ovarian): > 10 µM; TGI (SW-620 colon): > 10 µM; TGI (BT-549 breast): > 10 µM; TGI (COLO 205 colon): > 10 µM; TGI (SF-539 CNS): > 10 µM; TGI (CCRF-CEM leukemia): > 10 µM; TGI (M14 melanoma): > 10 µM; TGI (NCI-H460 lung): > 10 µM; TGI (CAKI-1 renal): > 10 µM; TGI (TK-10 renal): > 10 µM; TGI (MDA-N): > 10 µM; TGI (PC-3 prostate): > 10 µM; TGI (DU-145 prostate): > 10 µM; TGI (A549 NSCLC): > 10 µM; TGI (K-562 leukemia): > 10 µM; TGI (SF-268 CNS): > 10 µM; TGI (786-0 renal): > 10 µM; TGI (SNB-75 CNS): > 10 µM; TGI (A498 renal): > 10 µM; TGI (MDA-MB-231 breast): > 10 µM; TGI (ACHN renal): > 10 µM; TGI (RXF 393 renal): > 10 µM; TGI (EKVX NSCLC): > 10 µM; TGI (OVCAR-8 ovarian): > 10 µM

Question: What does the source list for `COc1ccc(-c2cc(=O)c3cc(C)cnc3[nH]2)cc1`?
Answer: TGI (HCC-2998 colon): 85 µM; TGI (SN12C renal): > 100 µM; TGI (RPMI-8226 leukemia): 45 µM; TGI (MOLT-4 leukemia): 40.9 µM; TGI (T-47D breast): > 100 µM; TGI (MCF7 breast): > 100 µM; TGI (UO-31 renal): > 100 µM; GI50 (HL-60(TB) leukemia): 2.27 µM; TGI (HL-60(TB) leukemia): 5.64 µM; TGI (SNB-19 CNS): > 100 µM; TGI (MDA-MB-435): 5.53 µM; GI50 (SK-MEL-5 melanoma): 3.73 µM; TGI (SK-MEL-5 melanoma): > 100 µM; TGI (OVCAR-5 ovarian): > 100 µM; GI50 (SF-295 CNS): 5.29 µM; TGI (SF-295 CNS): > 100 µM; TGI (HOP-62 NSCLC): > 100 µM; GI50 (HCT-116 colon): 4.15 µM; TGI (HCT-116 colon): > 100 µM; TGI (UACC-257 melanoma): > 100 µM; TGI (SK-MEL-28 melanoma): > 100 µM; TGI (HS 578T breast): > 100 µM; TGI (NCI-H23 lung): > 100 µM; TGI (HOP-92 NSCLC): > 100 µM; TGI (HCT-15 colon): 19.8 µM; TGI (NCI/ADR-RES ovarian): 23.5 µM; TGI (NCI-H226 lung): 51.7 µM; TGI (MALME-3M melanoma): > 100 µM; TGI (SK-MEL-2 melanoma): > 100 µM; TGI (HT29 colon): 5.9 µM; TGI (SK-OV-3 ovarian): > 100 µM; TGI (KM12 colon): > 100 µM; TGI (OVCAR-4 ovarian): > 100 µM; TGI (NCI-H522 lung): 30.7 µM; GI50 (U251 CNS): 4.2 µM; TGI (U251 CNS): > 100 µM; TGI (IGROV1 ovarian): > 100 µM; TGI (SW-620 colon): > 100 µM; TGI (BT-549 breast): 15 µM; TGI (COLO 205 colon): 23 µM; TGI (SF-539 CNS): > 100 µM; TGI (M14 melanoma): 45.1 µM; GI50 (NCI-H460 lung): 4.08 µM; TGI (NCI-H460 lung): 36.5 µM; TGI (CAKI-1 renal): > 100 µM; TGI (TK-10 renal): > 100 µM; TGI (LOX IMVI melanoma): > 100 µM; GI50 (MDA-N): 1.69 µM; TGI (MDA-N): 4.98 µM; GI50 (PC-3 prostate): 5.32 µM; TGI (PC-3 prostate): > 100 µM; TGI (DU-145 prostate): > 100 µM; TGI (UACC-62 melanoma): > 100 µM; TGI (A549 NSCLC): > 100 µM; TGI (K-562 leukemia): 8.29 µM; TGI (SF-268 CNS): > 100 µM; GI50 (786-0 renal): 5.1 µM; TGI (786-0 renal): > 100 µM; TGI (A498 renal): 62.6 µM; TGI (MDA-MB-231 breast): > 100 µM; TGI (ACHN renal): > 100 µM; TGI (RXF 393 renal): > 100 µM; TGI (EKVX NSCLC): > 100 µM; TGI (OVCAR-8 ovarian): > 100 µM
